Experiments:
Type in all cases: cell-based
[1] = system: mouse melanoma cells (B16); assay: MTT cytotoxicity assay, B16 cells; details: 10 μg/mL (individual components at similar concentrations), MTT at 24 hours
Source text: (§1) Preparation of Compositions: A process of preparing a composition comprising of Rh2, aPPD, and aPPT saponins and/or sapogenins from plants selected from the group consisting of panax ginseng, panax quinguefol and panax notoginseng, or a sapogenin source from some other plant, and proceeding according to the following steps: • (a) mixing the ginsenoside extract with water; • (b) (i) mixing the ginsenoside extract and water with a short-chain (1-5 carbon) alkali-metal alcoholate solution or a hydroxide-ethanol solution to produce a mixture; and • (ii) placing the resultant mixture in a reaction tank so that the resultant mixture can undergo chemical reactions at a temperature between 240 and 300° C. and at a pressure between 3.5 and 8.4 MPa; or • (c) (i) alternatively, mixing the ginsenosides extract with ethanol; • (ii) mixing the extract and ethanol with alkali-metal alcoholates solution to produce a mixture, and • (iii) placing the resultant mixture in a reaction tank so that the resultant mixture can undergo chemical reactions at a temperature between 240 and 300° C. and at a pressure between 3.5 and 8.4 MPa; and • (d) after the reaction is completed, collecting an intermediate product of a mix of saponins and/or sapogenins from the ethanol mixture. Cytotoxicity was measured using a standard microculture tetrazolium assay (MTT) (Alley, M C et al, Cancer Research 48:589-601, 1988). Exponentially growing cultures of tumor cells, including multi-drug resistant cell lines, were used to make microtiter plate cultures. Cells were seeded at 1.2×10^3 cells per well in 96-well plates, and grown overnight at 37° C. Test compounds were then added. Cells were treated for 24 hours. To determine the number of viable cells in each well, the MTT dye was added (3-(4,5-dimethylthiazol-2-yl)-2,5-diphenyltetrazolium bromide in saline) in accordance with the standard practice known in the art.
Cultured mouse melanoma cells (B16) were treated with the saponins and sapogenins Rh2, aPPT, and aPPD, individually, at various concentrations. […]

[2] = system: human breast cancer cells (MCF7); assay: MTT cytotoxicity assay, MCF7 cells; details: 15 μg/mL (individual components at similar concentrations), MTT at 24 hours
Source text: as §1
Cultured human breast cancer cells (MCF7) were treated with the saponins and sapogenins Rh2, aPPT, and aPPD, individually, at various concentrations. […]

[3] = system: human glioma tumor cells (U87); assay: MTT cytotoxicity assay, U87 cells; details: 15 μg/mL (individual components at similar concentrations), MTT at 24 hours
Source text: as §1
Cultured human glioma tumor cells (U87) were treated with the saponins and sapogenins Rh2, aPPT, and aPPD, individually, at various concentrations. […]

SMILES	cancer cells killed [1] [%]	cancer cells killed [2] [%]	cancer cells killed [3] [%]
CC(C)=CCC[C@@](C)(O)[C@H]1CC[C@]2(C)[C@@H]1[C@H](O)C[C@@H]1[C@@]3(C)CC[C@H](O)C(C)(C)[C@@H]3CC[C@]12C [aPPD, aglycon protopanaxadiol]	44	69	52
CC(C)=CCC[C@](C)(O)[C@H]1CC[C@]2(C)[C@@H]1[C@H](O)C[C@@H]1[C@@]3(C)CC[C@H](O[C@@H]4O[C@H](CO)[C@@H](O)[C@H](O)[C@H]4O)C(C)(C)[C@@H]3CC[C@]12C [Rh2, 3-O-β-D-glucopyranosyl-20(s)-protopanaxadiol]	56	68	64
CC(C)=CCC[C@](C)(O)[C@H]1CC[C@]2(C)[C@@H]1[C@H](O)C[C@@H]1[C@@]3(C)CC[C@H](O)C(C)(C)[C@@H]3[C@@H](O)C[C@]12C [aPPT, aglycon protopanaxatriol]	47	68	29

From patent publication US20060013897A1, “Compositions for cancer therapy saponins or sapogenins” (priority 2002, published 2006)
